In test [1] the test system is ERK signaling pathway. The test is described as follows: Western blotting of ERK phosphorylation in hDPCs. The format is cell-based, human. Conditions: 1 μM, within 15 minutes, FIG. 2. The procedure:
To identify the effects of PDE 3 inhibitors on an ERK signaling pathway, which is a key cell proliferation-associated signaling pathway, human hDPCs were treated with cilostazol, cilostamide, trequinsin, or milrinone at a concentration of 1 μM for 0 minute, 5 minutes, 15 minutes, and 60 minutes, and western blotting was performed thereon.
For orientation: A western blot detects proteins with antibodies after separation by electrophoresis.

For test [2], the system named is human hair follicle-derived hair dermal papilla cells (hDPCs). The test is described as follows: BrdU assay of cell division of hDPCs. Type of test: cell-based. To be noted: 0 μM to 10 μM, 48 hours, versus negative control, FIG. 1. The procedure:
To evaluate the effect of PDE on the proliferation of hair follicle cells, human hair follicle-derived hDPCs were treated with cilostazol, cilostamide, trequinsin, or milrinone, which are well-known PDE 3 inhibitors, and then subjected to a BrdU assay.
First, primarily cultured hDPCs were treated with cilostazol, cilostamide, trequinsin, or milrinone at a concentration of 0 μM to 10 μM, cultured for 44 hours, treated with a BrdU reagent, and then allowed to react for 4 hours. After culturing for a total of 48 hours, the presence or absence of luminescence was measured using a luminometer for detecting BrdU, and cell division and activation degrees of the hDPCs were identified by comparison with a negative control.
For orientation: Dividing cells build labelled thymidine or BrdU into new DNA.

Test [3] deals with C57BL/6 mice. Briefly: Anagen induction test in C57BL/6 mouse model. Type of test: in vivo. Conditions: 0.2 wt % or 1 wt % applied once a day for three weeks. An excerpt:
To identify hair growth effects by PDE 3 inhibitors, an anagen induction effect was examined using a C57BL/6 mouse model. Although the hair cycle of human hair varies depending on individuals, mice have the same hair cycle at an initial stage and all hairs enter into a telogen phase 7 weeks to 8 weeks after birth, which then turns into an anagen phase. To evaluate an anagen induction effect using these characteristics of mice, dorsal hairs of 8-week-old C57BL/6 mice in the telogen phase were removed, 0.2 wt % or 1 wt % of cilostazol was applied thereon once a day for three weeks, and then through comparison with a negative control and the case of 2 wt % of minoxidil as a positive control, the presence or absence of hair growth and an anagen induction degree were identified. In addition, skin tissue from which anagen hair grew was fixed with paraffin and stained with hematoxylin and eosin to conduct a histological examination, and the results thereof are shown in FIG. 5.

In test [4] the test system is human hair follicles. Briefly: Ex vivo hair follicle organ culture test. Conditions: 1 μM or 10 μM, day 2, 4 and 6, versus negative control, FIG. 3A. The procedure: To evaluate the effects of PDE 3 inhibitors on human hair follicle growth, an ex vivo hair follicle organic culture test was performed using cilostazol. More particularly, to conduct the ex vivo hair follicle organic culture test, scalp tissues obtained from volunteers were divided into follicular units, and parts below sebaceous glands of the divided hair follicles were cut off and the remaining parts of the hair follicles were used. The prepared hair follicles were cultured in a culture medium containing a negative control reagent or 1 μM or 10 μM cilostazol, the length of hair growing on day 2, day 4, and day 6 was measured, and then a hair growth promotion effect of the human hair follicles was identified by comparison with a negative control.

For test [5], the system named is MAPK-associated proteins (ERK, JNK, P-38). Briefly: Western blotting of MAPK-associated signaling proteins in mouse skin tissue. Conditions: mouse skin tissue after anagen induction experiment, FIG. 6. Type of test: in vivo. The procedure: To verify the effect of a PDE 3 inhibitor on a MAPK-associated signaling pathway, which is a cell proliferation-associated signaling pathway, western blotting was performed using mouse skin tissue.

In test [6] the test system is human hair follicles. Briefly: Ki-67 immunofluorescence staining of cultured hair follicles. Conditions: cultured for two days, FIG. 3B. The procedure: In addition, to identify cell proliferation of the cultured hair follicles through the test, immunofluorescence staining was performed using antibodies against Ki-67, which is a cell division marker. The hair follicles were treated with cilostazol, cultured for two days, and made into a tissue section, the tissue section was cut to a thickness of 4 μm and fixed on a slide, followed by reaction with Ki-67 treated with primary antibodies and treatment with secondary antibodies with green fluorescence capable of detecting Ki-67, and then the resulting section was observed using a fluorescence microscope and photographed, and the number of Ki-67 positive cells was identified. In addition, the nuclei of the hair follicles was stained using a DAPI reagent.

The test system of test [7] is angiogenesis around hair follicles. Briefly: CD31 immunofluorescence staining for angiogenesis around hair follicles. The format is in vivo. To be noted: mouse skin tissue. The procedure:
To verify the effect of a PDE 3 inhibitor on angiogenesis around hair follicles, immunofluorescence staining with CD31, which is a blood vessel marker protein, was performed. More particularly, mouse skin tissue of a negative control and mouse skin tissue on which cilostazol was applied were rapidly cryotreated and prepared into blocks, and then each block was cut into a tissue section having a thickness of 15 μm using a cryotome and immobilized on a slide. In addition, each tissue section was allowed to react with antibodies against CD31, which is a blood vessel marker protein, as primary antibodies, and then treated with secondary antibodies with green fluorescence capable of detecting CD31, and the resulting tissue sections were observed using a fluorescence microscope and photographed, and the area of blood vessels was measured using an image analysis program.

Here are results for four compounds from patent publication US10588906B2, “Method of preventing hair loss or promoting hair growth by using phosphodiesterase 3 inhibitor” (SEOUL NATIONAL UNIVERSITY HOSPITAL, priority 2017, dated 2020).

For the compound `COc1cc2c(cc1OC)-c1c/c(=N\c3c(C)cc(C)cc3C)n(C)c(=O)n1CC2` [trequinsin], the “phosphorylation of intracellular ERK proteins” value in test [1] is on record as “increased”. In addition, in test [2], the “cell division of the hDPCs (BrdU)” value is given as “significantly increased”.
For `CN(C(=O)CCCOc1ccc2[nH]c(=O)ccc2c1)C1CCCCC1` [cilostamide], in test [1], the “phosphorylation of intracellular ERK proteins” value was “increased”. Besides, in test [2], the “cell division of the hDPCs (BrdU)” value is “significantly increased”.
`Cc1[nH]c(=O)c(C#N)cc1-c1ccncc1` [milrinone]: in test [1], the “phosphorylation of intracellular ERK proteins” value was “increased”. Further, in test [2], the “cell division of the hDPCs (BrdU)” value is listed as “significantly increased”.
With `O=C1CCc2cc(OCCCCc3nnnn3C3CCCCC3)ccc2N1` [cilostazol], in test [1], the “phosphorylation of intracellular ERK proteins” value is listed as “increased”. Further, the “proportion of a site on which anagen hair grew” value in test [3] (FIG. 4) was “significantly increased”. Moreover, the “formation of hair follicles (hematoxylin and eosin histology)” value in test [3] (FIG. 5A) was “promoted”. Also, in test [3] (FIG. 5B), the anagen induction score entry is “increases”. In test [3] (FIG. 5C), the skin thickness entry was “increases”. Also, the “hair growth of the human hair follicles (length of hair)” value in test [4] is “promoted hair growth”. Besides, the “phosphorylation of the MAPK-associated signaling proteins (ERK, JNK, P-38)” value in test [5] was “increased”. The “cell division of the hDPCs (BrdU)” value in test [2] is “significantly increased”. Also, in test [6], the “cell division in the human hair follicles (Ki-67 positive cells)” value was “increased”. In test [7] (FIG. 7A), the “angiogenesis (CD31 staining)” value was “induced”. Further, the “area of blood vessels” value in test [7] (image analysis, FIG. 7B) was “increased”.
